{"source": "paper PMC8118680", "about": "(Chemistry of Heterocyclic Compounds, 2021)", "key": {"[1]": {"system": "influenza virus strain A/Puerto Rico/8/34 (H1N1)", "type": "cell-based", "conditions": "result in words; for activity against influenza virus strain A/Puerto Rico/8/34 (H1N1): MDCK cells"}, "MDCK cells": {"system": "MDCK cells", "test": "Cytotoxicity in MDCK cells, MTT assay", "type": "cell-based", "conditions": "result in words"}}}
{"compound": "O=C(Cn1nnc(-c2ccccc2)n1)NNc1ncccn1", "note": "[Compound 7a, N '-(Pyrimidin-2-yl)-2-(5-phenyl-2 H -tetrazol-2-yl)acetohydrazide]", "values": [{"measurement": "activity against influenza virus strain A/Puerto Rico/8/34 (H1N1)", "setting": "[1]", "value": "did not show activity"}]}
{"compound": "Cc1cc(C)nc(NNC(=O)Cn2nnc(-c3ccccc3)n2)n1", "note": "[Compound 7b, N '-(4,6-Dimethylpyrimidin-2-yl)-2-(5-phenyl-2 H -tetrazol-2-yl)acetohydrazide]", "values": [{"measurement": "activity against influenza virus strain A/Puerto Rico/8/34 (H1N1)", "setting": "[1]", "value": "did not show activity"}]}
{"compound": "c1ccc(-n2nnnc2Sc2ncccn2)cc1", "note": "[Compound 12a, 2-[(1-Phenyl-1 H -tetrazol-5-yl)sulfanyl]pyrimidine]", "values": [{"measurement": "activity against influenza virus strain A/Puerto Rico/8/34 (H1N1)", "setting": "[1]", "value": "did not show activity"}]}
{"compound": "Cc1cc(C)nc(Sc2nnnn2CC(=O)O)n1", "note": "[Compound 12b, {5-[(4,6-Dimethylpyrimidin-2-yl)sulfanyl]-1 H -tetrazol-1-yl}acetic acid]", "values": [{"measurement": "cytotoxicity", "setting": "MDCK cells", "value": "significantly lower cytotoxicity"}, {"measurement": "SI relative to the reference drug rimantadine", "setting": "[1]; influenza A H1N1 in MDCK cells", "value": "twice"}]}
